“And” between values parts separate entries of the source, which are not always exact repeats. Equal values may be shown once.
Tested on: MDA-MB-231
Assay: shRNA barcode abundance ratio t_end/t_zero (depletion over 4 weeks of proliferation) (log2 ratio); higher = less depletion (weaker anti-proliferative effect of the shRNA)
Details: time after t zero 28 days
Procedure: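 Pooled lentiviral negative-selection screen of 305 pGIPZ shRNAs (Open Biosystems V2LHS clones; the 21-nt half-hairpin sense stem is embedded in a mir-30 scaffold) in MDA-MB-231 breast carcinoma cells, infected at MOI 0.3 with 0.5 ug/ml puromycin selection. Barcode abundance was read on barcode tiling microarrays (six 25-nt probes per 60-nt barcode) at t_zero (5 days post-infection) and t_end (33 days; 28 days of culture after t_zero). Values are median-normalised t_end/t_zero signal ratios, averaged over the tiling probes that passed a 10-fold background filter, from three biological replicates.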

| Sequence | shRNA barcode abundance ratio t end/t zero (log2) |
| --- | --- |
| GCAAATGGAATCTTTATGAAA (targeted gene: MALT1) | 0.375 |
| GCAAATTTCATGACCAGTAAA (targeted gene: TDGF1) | -0.234 |
| GCAAGCAGTCTTGTGAGTTAA (targeted gene: RASA1) | -0.169 and -0.167 |
| GCAATTGAGAGCATTCTTAAA (targeted gene: IL3) | -0.0688 |
| GCACAACCAGTTCTGCAATAT (targeted gene: TAX1BP1) | 0.565 |
| GCACAAGCAGCTGATCCGATT (targeted gene: IL4) | -0.0177 |
| GCACAGCATCAAACCAAGTTA (targeted gene: MLH1) | 0.165 |
| GCACAGGCTTTATCGAGAATA (targeted gene: IGFBP3) | 0.0415 |
| GCACATCCTTGCTAATTTCAA (targeted gene: TPT1) | 0.0219 |
| GCACCTAGTGTCCAGATTCAT (targeted gene: HDAC3) | 0.129 |
| GCACCTTGTTGTCATGAACTT (targeted gene: DAD1) | 0.0822 and 0.0853 |
| GCACTTGCCTTTAAACTATGT (targeted gene: NFIA) | 0.384 |
| GCAGAAGCTCTCCAAATTGAA (targeted gene: APAF1) | 0.521 |
| GCAGATGAAGATCATCGAAAT (targeted gene: BRAF) | 0.116 |
| GCAGATTCAAGTCAATCTGAA (targeted gene: NFIA) | 0.355 |
| GCAGATTCGTTCAGAGTCTAA (targeted gene: BIRC3) | 0.154 |
| GCAGCTTCAGGTTTACTCAAA (targeted gene: CD28) | 0.127 |
| GCAGCTTCCTTGAACCATTAT (targeted gene: SPHK1) | -0.397 |
| GCAGGTATTTGACATATTAAA (targeted gene: NFKB1) | 0.38 |
| GCAGTAGCCTTGATAGATTAT (targeted gene: BIRC6) | -0.00928 |
| GCAGTATAGAGCGTGCAGATA (targeted gene: PTEN) | -0.0774 |
| GCATCAGATGATTTGTCATTA (targeted gene: BIRC2) | 0.0467 and 0.133 |

| Sequence | shRNA barcode abundance ratio t end/t zero (log2) |
| --- | --- |
| GCATCATGCCTTCTGAATAAA (targeted gene: CLN3) | 0.486 |
| GCATCTTCTTCGGTGAAATAT (targeted gene: BNIP2) | -0.0165 |
| GCATGTAATAGAGTGTGCTAA (targeted gene: MSH2) | 1.01 |
| GCATGTTATGTTGTTCTTATT (targeted gene: XIAP) | 0.25 |
| GCCAAGTTCTTAGTTGCTGTA (targeted gene: CXCR4) | -1.59 |
| GCCAATATTGTGTTTGGATAT (targeted gene: MALT1) | 0.354 |
| GCCACATGTCTTTGCTTGATA (targeted gene: NAIP) | 0.453 |
| GCCCTGATTGTGTATATTCAT (targeted gene: BCL2) | 0.006 |
| GCCCTGTACTTTAACCCAATT (targeted gene: BFAR) | 0.0378 |
| GCCGAAGATTTCACAGTCAAA (targeted gene: IGF1R) | 0.225 |
| GCCGTTAACTAGGTTAATAAA (targeted gene: FANCF) | -0.0468 |
| GCCTACAGCTGCCTCCTAGAA (targeted gene: ANXA4) | 0.417 |
| GCCTACTTTCACACTAAGAAA (targeted gene: CASP8) | -0.242 |
| GCCTATATCAGCAATTGTCAT (targeted gene: ATM) | -0.178 |
| GCCTATGACTTTATCATGAAA (targeted gene: ABCB1) | 0.0933 |
| GCCTCACCAGTCCATTATTAT (targeted gene: BIRC6) | 0.259 |
| GCCTGCTGAATTTATGTTGTA (targeted gene: RAB6C) | -1.3 |
| GCCTGTCCATTGGTGATGTTG (targeted gene: HMGB1) | -0.18 |
| GCCTTGAAACATTGATGGAAT (targeted gene: BCL2) | 0.25 |
| GCCTTGGAACTGATGAAGATA (targeted gene: ANXA1) | 0.483 |
| GCGAAGAACCTTGTGTGACAA (targeted gene: BCL2) | -0.0784 |
| GCGCAAGAAATCCCGGTATAA (targeted gene: VEGFA) | 0.382 |

| Sequence | shRNA barcode abundance ratio t end/t zero (log2) |
| --- | --- |
| GCGCACAGGCTTTATCGAGAA (targeted gene: IGFBP3) | -0.0187 |
| GCGCCGAAATTGCAGGTTTAT (targeted gene: BIRC8) | -0.37 |
| GCGCGAGTTCGCTTCTAATAT (targeted gene: GSX1) | 0.174 |
| GCGGTTCTTAGAAGAGTACTT (targeted gene: DAD1) | -0.432 |
| GCGTCGTTAATTTATTTCTTA (targeted gene: IER3) | 0.159 |
| GCGTCTGGCCTCCTTCTATGA (targeted gene: BIRC7) | 0.556 |
| GCGTGCCATGACAAAGGATAA (targeted gene: HSPA8) | -0.885 |
| GCGTTTAAGGTGAGCATAAAT (targeted gene: CYP1B1) | -0.142 |
| GCTAACTGTGTGTACATATAT (targeted gene: PEA15) | -0.216 |
| GCTAAGAGATTCGCCTTAAAT (targeted gene: SOCS3) | 0.308 |
| GCTATACGAATGGGATTTGAT (targeted gene: BIRC8) | 0.211 |
| GCTATCTCTCCTGAAGCAATA (targeted gene: BCL2A1) | 0.264 |
| GCTCAACAGATCCAATTTCAT (targeted gene: RBKS) | -0.0517 |
| GCTCACTACCAAATGTTAATA (targeted gene: BAD) | 0.223 |
| GCTCACTCTTCAGTCGGAAAT (targeted gene: BCL2L1) | -0.368 |
| GCTCAGTGAGCCCATGGAATT (targeted gene: RELA) | 0.332 |
| GCTCTGTACTTCAACCCAATT (targeted gene: BFAR) | 0.0174 |
| GCTCTTCATCAGGAGAAATAA (targeted gene: OPA1) | 0.0963 |
| GCTCTTCCACTCAGGTGAGAA (targeted gene: LOC284939) | -0.0337 |
| GCTGAAGTACAGGACAATTAT (targeted gene: TAX1BP1) | 0.181 |
| GCTGAGACAACGTACGACAAA (targeted gene: GDNF) | -0.263 |
| GCTGAGGAGGCTCAAGTTAAA (targeted gene: TGFB1) | 0.277 |

| Sequence | shRNA barcode abundance ratio t end/t zero (log2) |
| --- | --- |
| GCTGCCAAACTTCAGATAATA (targeted gene: NT5C3) | 0.163 |
| GCTGCTTCTGTCTGGTTTATT (targeted gene: THY1) | -0.0341 |
| GCTGGACAACTTGTTGTTAAA (targeted gene: IL10) | 0.168 |
| GCTGGCAATTACCAGAACAAT (targeted gene: WRN) | 0.0875 |
| GCTGTAACTACTTTATAACTA (targeted gene: RHOA) | -0.0204 |
| GCTGTGAGTTCTGATAGGAAT (targeted gene: XIAP) | -0.186 |
| GCTGTGGTTAATTACACATTA (targeted gene: ACVR1) | -0.208 |
| GCTTAGAACTTTAAGCAACAA (targeted gene: TNF) | -1.56 |
| GCTTCCTACAGCACAACAAAT (targeted gene: VEGFA) | 0.437 |
| GCTTGTTGTTTGAGAAGTTTA (targeted gene: BAG3) | 0.38 |
| GGAAATTCTTTCACTTCATTA (targeted gene: MCL1) | 0.208 |
| GGAACTTTAGTTGAAGCGTAA (targeted gene: APAF1) | 0.303 |
| GGAAGTGATCCAAATGTTAAA (targeted gene: BARD1) | -2.23 |
| GGACAAAGTTTACCAAATGAA (targeted gene: CASP8) | 0.402 |
| GGACAGTGCTTGATACAGGAA (targeted gene: PIM1) | 0.128 |
| GGACATCTAGTCACTTGTAAA (targeted gene: XIAP) | 0.00436 |
| GGACATGACAACTCATCTCAT (targeted gene: IL6) | 0.175 |
| GGACTCTAGAATGTCCATATT (targeted gene: NUAK2) | 0.326 |
| GGACTCTCTTCTAGAGCCATA (targeted gene: BCL2L2) | 0.635 |
| GGACTTCAGCAGAAATCTTTA (targeted gene: CASP8) | 0.126 |

Reference: the supplement of paper PMC2824726
